Laboratory results: ChEMBL document CHEMBL6087386, “Radioprotective effectiveness of a novel delta-tocotrienol prodrug on mouse hematopoietic system against 60Co gamma-ray irradiation through inducing granulocyte-colony stimulating factor production” (Eur J Med Chem, 2024)
Active and inactive are the calls of the source. No cut-off for these calls is given here.

Legend:
[1] = Stability in C57BL/6J mouse plasma assessed as half-life; format: ADME, cell-free
[2] = Stability in […] human plasma assessed as half-life; format: ADME, cell-free
[3] = Stability in C57BL/6J mouse whole blood assessed as half-life; format: ADME, tissue-based
Mus musculus [4] = experiment: Induction of G-CSF production in C57BL/6J mouse model at 100 mg/kg, ip measured for 24 hrs by ELISA analysis; format: functional, organism-based
Mus musculus [5] = experiment: Radioprotective activity in C57BL/6J mouse assessed as survival rate at 100 mg/kg, sc preincubated with compound for 24 hrs followed by total body irradiation with 8.5 Gy and measured after 20 days by Kaplan-meier plot analysis; format: functional; settings: light or radiation study, 504 h, time 21 day
Mus musculus [6] = experiment: Radioprotective activity in C57BL/6J mouse assessed as survival rate at 100 mg/kg, sc preincubated with compound for 24 hrs followed by total body irradiation with 8.5 Gy and measured after 30 days by Kaplan-meier plot analysis; format: functional; settings: Mus musculus, C57BL/6J, light or radiation study, 744 h, time 31 day
Mus musculus [7] = experiment: Induction of G-CSF production in C57BL/6J mouse model at 100 mg/kg, sc measured for 24 hrs by ELISA analysis; format: functional, organism-based

SMILES | half-life [3] | Activity (Mus musculus [4]) | further results
CCN(CC)CCOC(=O)c1ccc(N)cc1 [PROCAINE] | 12.3 min |  | half-life [1]: 13.2 min; half-life [2]: 0.7 min
Cc1cc(O)cc2c1O[C@](C)(CCCC(C)CCCC(C)CCCC(C)C)CC2 (stereo not given in full) |  | inactive | 
Cc1c(O)cc2c(c1C)O[C@](C)(CCCC(C)CCCC(C)CCCC(C)C)CC2 (stereo not given in full) |  | inactive | 
CC(C)=CCC/C(C)=C/CC/C(C)=C/CC[C@]1(C)CCc2cc(OC(=O)/C=C/C(=O)O)cc(C)c2O1 | 24.1 min |  | survival at 100 mg/kg (Mus musculus [5]): 70%; survival at 100 mg/kg (Mus musculus [6]): 90%; Activity (Mus musculus [7]): Active
CC(C)=CCC/C(C)=C/CC/C(C)=C/CC[C@]1(C)CCc2c(C)c(O)c(C)c(C)c2O1 |  | inactive | 
